Reference: patent US20100130432A1, “Non-Natural Amino Acids and Neurotensin Analogues Thereof” (priority 2005, published 2010)
Entries after “also recorded” stand apart in the source; their conditions may differ. Like-named read-outs stand apart in the source and are kept apart here. Non-standard residues stand in square brackets, D forms with d. Residues, ends and D or L forms follow the SMILES beside them. *: point of attachment. Tle = CC(C)(C)[C@H](N)C(=O)O; X1 = C[C@@H](CCCCCN)C(=O)*

Assays:
rats [1] = assay: d-Amphetamine induced hyperlocomotion / locomotor activity chambers; assay type: in vivo, rat
Source text: Sound- and light-attenuated locomotor cages are used to measure the ability of potential candidates to decrease d-amphetamine-induced hyperactivity.
d-Amphetamine induced hyperlocomotion. Experimentally I male Sprague-Dawley rats were housed as described above. Rats were handled for three days prior to testing to minimize experimenter induced hyperlocomotion on test day. For experiments, sound- and light-attenuated automated photocell beam activity chambers (AccuScan Instruments, Inc., Columbus, Ohio) were used to measure locomotion. Cages were connected to a VersaMax Analyzer (AccuScan) in conjunction with an IBM computer using VersaMax 1.80-0146 software (AccuScan) to record vertical and horizontal activity. Total activity values recorded were the sum of vertical and horizontal activity. […]
Rats were placed in the activity chambers for 30 minutes to habituate and establish baseline activity levels. Then, rats were removed and given an IP or oral dose of peptide (N=7) or saline (N=8) and returned to the chamber to establish the peptide's effect on spontaneous activity levels. About 30 minutes after administration, rats were removed and given an IP injection of d-amphetamine (1 mg/kg) or vehicle and returned to the chamber for a further 1 hr to assess the effect of the peptide on induced hyperlocomotion.
Chronic Testing Protocols.
Separate two-factor ANOVAs for DOSE X TIME were performed for each different time-phase of the assay. Phases for the IP dosing and oral dosing experiments consisted of habituation (time points 10-60), drug (time points 70-120), and amphetamine (time points 130-240).

NTR-1 [2] = target: T1, NTR-1 (Homo sapiens, UniProt P30989); assay: Competitive NTR binding versus radiolabeled NT[8-13]
NTR-2 [3] = target: T2, NTR-2 (Homo sapiens, UniProt O95665); assay: as above
NTR-1 [4] = target: T1, NTR-1; assay: Functional agonism: induction of cAMP and inositol phosphate production; assay type: cell-based
NTR-2 [5] = target: T2, NTR-2; assay: as above; assay type: cell-based
[6] = Plasma stability, quantitative MALDI-MS assay; assay type: in vitro ADME
mouse bone marrow cells = assay: Micronucleus study; assay type: in vivo; conditions: initial data
Method: Genetic Toxicology. […] Experimental protocols are as follows.
In the micronucleus study, 90 CD-1 mice used in the study consisted of 10/sex/group in Groups 1-4 (control, low-, mid-, and high-dose) and 5/sex in the positive control group. Test peptide as administered orally, the positive control, Cyclophosphamide at 80 mg/kg, as administered orally. Approximately 24 and 48 hours after dosing, mice were killed and bone marrow obtained from both femurs. A slide of a bone marrow suspension was prepared, stained with Wright-Giemsa stain, dried, and scored blind. The number of polychromatic erythrocytes (PCE) among the total erythrocytes (PCE+normochromatic erythrocytes (NCE)) were determined for each animal by counting at least 200 erythrocytes. The number of micronucleated polychromatic erythrocytes (MPCE) then were scored for 2000 PCE per animal. A positive result was obtained, if there is a positive dose-response trend or statistically significant increase in the number of MPCE at one or more dose levels compared to controls.

[7] = Pharmacokinetics of ABS201 in blood/plasma (LC/MS/MS)
Source text: (§1) At selected time points, blood was removed or brain harvested and the concentration of the peptide analog determined using LC/MS/MS.
(§2) These samples were then used for the determination of plasma and brain drug levels by LC/MS/MS for estimating BBB penetration and pharmacokinetic parameters.

[8] = Brain distribution of ABS201 (LC/MS/MS)
Source text: as §1, §2

[9] = intra-stomach
Method: These samples were used for the determination of plasma drug by LC/MS/MS for estimating pharmacokinetic parameters and segmental absorption. The bioavailability of intra-stomach, intra-duodenum, intra-jejunum, intra-colon administration relative to intravenous administration and gavage was calculated.

Brattleboro rats = conditions: orally dosed
[10] = test system: adrenergic (alpha1, alpha 2, beta), dopamine, histamine (H1, H2, H3), muscarinic (central, peripheral), nicotinic, opioid (nonselective), orphanin, serotonin …; conditions: 10^−9, 10^−7 10^−5 M
[11] = target: hERG (human ether-a-go-go related gene) channels (Homo sapiens, UniProt Q12809); conditions: initial results
Method: hERG Assay. The objective of the hERG study is to assess the effects of the test article on the rapidly activating inward rectifying potassium current (IKr) conducted by hERG (human ether-a-go-go related gene) channels stably expressed in a HEK293 cell line. The method used is as follows. HEK293 cells, stably transfected with hERG cDNA, were used in the study. All experiments were performed at near-physiological temperature (35±2° C.). A positive control (60 nM terfenadine) was applied to two cells (n 2). Cells were be transferred to the recording chamber and superfused with HB-PS solution. The recording chamber and bathing solution were maintained at a temperature of 35±2° C. using a combination of in-line solution pre-heater, chamber floor heater, and feedback temperature controller. Bath temperature were measured using a thermistor probe.
Patch pipettes were made from glass capillary tubing using a P-97 micropipette puller (Sutter Instruments, CA). A commercial patch clamp amplifier was used for whole cell recordings. Before digitization, current records were low-pass filtered at one-fifth of the sampling frequency.
Cells stably expressing hERG were held at −80 mV.

[12] = 5 or 30 min incubation at 37° C.
rats [13] = test system: rats
Source text: Chronic Testing Protocols. […] Induced hypothermia was monitored and tested for significance as described above. […] The test protocol for day five was as described above.

in vivo = conditions: rat
rats [14] = assay: Maximum tolerated dose; conditions: rat, in vivo
rats [15] = assay: Catalepsy, horizontal bar test
Method: Cataleptic Analysis. […] To circumvent these potential confounding factors, tests are performed on an animal only once in a quiet, controlled environment.
Catalepsy Assessment. […] Rats were given an IP injection of peptide (5 mg/Kg), saline, or haloperidol (1 mg/kg). After 3 hours, catalepsy was measured using the horizontal bar test. Briefly, the front paws were placed directly on a horizontal bar 5 mm in diameter placed 7.5 cm above the cage floor. The rat was held in this position for 3 sec and then released. The time from release until the paws return to the cage floor was measured and recorded. A cut-off time of 30 sec was observed; this indicated a fully cataleptic animal as cataleptic animals are frozen to the bar. […] Measures were repeated every 30 min for 4 hr. Data are means±SEM (p<0.01).

T1 sequence (P30989 whole entry, species assumed): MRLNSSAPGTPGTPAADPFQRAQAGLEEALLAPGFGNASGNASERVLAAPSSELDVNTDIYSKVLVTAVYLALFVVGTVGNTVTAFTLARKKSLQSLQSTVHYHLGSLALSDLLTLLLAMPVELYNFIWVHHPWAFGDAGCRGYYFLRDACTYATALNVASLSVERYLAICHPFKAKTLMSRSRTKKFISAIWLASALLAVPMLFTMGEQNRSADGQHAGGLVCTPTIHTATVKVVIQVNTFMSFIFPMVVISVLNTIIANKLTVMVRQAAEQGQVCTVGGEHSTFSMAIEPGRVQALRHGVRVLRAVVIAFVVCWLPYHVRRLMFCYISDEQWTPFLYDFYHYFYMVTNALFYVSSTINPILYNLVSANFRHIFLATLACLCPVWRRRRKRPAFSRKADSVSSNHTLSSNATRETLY
T2 sequence (O95665 whole entry, species assumed): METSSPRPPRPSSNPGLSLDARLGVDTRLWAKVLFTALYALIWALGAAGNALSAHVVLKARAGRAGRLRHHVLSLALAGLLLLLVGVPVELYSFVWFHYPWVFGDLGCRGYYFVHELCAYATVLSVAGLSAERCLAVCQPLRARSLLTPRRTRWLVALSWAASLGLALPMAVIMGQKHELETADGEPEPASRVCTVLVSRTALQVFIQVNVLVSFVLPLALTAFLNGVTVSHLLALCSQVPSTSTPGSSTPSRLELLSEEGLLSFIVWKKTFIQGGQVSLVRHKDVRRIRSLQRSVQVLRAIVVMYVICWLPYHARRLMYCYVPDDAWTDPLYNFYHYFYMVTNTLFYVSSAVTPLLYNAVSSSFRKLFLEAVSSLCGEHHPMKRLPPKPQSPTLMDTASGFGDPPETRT
Sequence of hERG (human ether-a-go-go related gene) channels (Q12809 whole entry): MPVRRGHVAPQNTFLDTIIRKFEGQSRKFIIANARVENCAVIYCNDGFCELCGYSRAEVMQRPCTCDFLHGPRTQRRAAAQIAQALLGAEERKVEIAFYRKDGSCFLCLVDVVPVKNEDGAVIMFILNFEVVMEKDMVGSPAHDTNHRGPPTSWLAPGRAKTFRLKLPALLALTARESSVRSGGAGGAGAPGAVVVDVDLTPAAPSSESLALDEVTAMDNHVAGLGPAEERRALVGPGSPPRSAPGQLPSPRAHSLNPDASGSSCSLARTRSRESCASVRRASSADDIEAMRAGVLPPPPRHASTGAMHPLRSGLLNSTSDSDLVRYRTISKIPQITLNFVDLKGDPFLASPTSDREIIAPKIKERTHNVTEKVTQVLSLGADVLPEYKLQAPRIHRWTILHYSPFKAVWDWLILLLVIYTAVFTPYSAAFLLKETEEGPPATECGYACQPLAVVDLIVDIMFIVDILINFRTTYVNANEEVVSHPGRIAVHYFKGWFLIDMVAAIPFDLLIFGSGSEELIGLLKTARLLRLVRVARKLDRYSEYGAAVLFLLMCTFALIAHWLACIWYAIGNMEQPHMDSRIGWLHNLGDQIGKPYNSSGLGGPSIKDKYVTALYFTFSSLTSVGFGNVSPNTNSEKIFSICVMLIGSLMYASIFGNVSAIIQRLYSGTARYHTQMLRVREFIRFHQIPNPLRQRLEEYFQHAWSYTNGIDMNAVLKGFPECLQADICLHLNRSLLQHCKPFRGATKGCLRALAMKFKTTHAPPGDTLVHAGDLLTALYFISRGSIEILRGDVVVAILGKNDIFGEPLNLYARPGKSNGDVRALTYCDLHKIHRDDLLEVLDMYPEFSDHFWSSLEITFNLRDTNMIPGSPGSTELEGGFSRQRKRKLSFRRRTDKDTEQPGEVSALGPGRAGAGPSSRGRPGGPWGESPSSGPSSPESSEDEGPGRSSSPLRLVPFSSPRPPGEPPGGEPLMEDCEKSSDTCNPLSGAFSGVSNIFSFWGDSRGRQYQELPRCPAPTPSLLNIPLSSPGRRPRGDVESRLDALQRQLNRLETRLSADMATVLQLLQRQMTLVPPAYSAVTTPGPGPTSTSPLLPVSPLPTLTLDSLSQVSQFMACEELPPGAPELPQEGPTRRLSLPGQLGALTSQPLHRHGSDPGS

In the case of `CC(C)C[C@H](NC(=O)[C@@H](NC(=O)[C@H](Cc1ccc(O)cc1)NC(=O)[C@@H]1CCCN1C(=O)[C@H](CCCNC(=N)N)NC(=O)[C@@H](C)CCCCCN)C(C)(C)C)C(=O)O` [ABS201, hLys-Arg-Pro-Tyr-t-Leu-Leu] (X1-RPY[Tle]L-OH), the “ED50 inhibition of amphetamine-induced hyperlocomotion” value (rats [1]; IP) is reported as “about 1 mg/kg”, the “effect of repeated daily dosing on attenuation of d-amphetamine induced hyperlocomotion” value (rats [1]; IP 5 mg/kg daily, 5 days) is reported as “had no effect” and the “spontaneous locomotor activity, drug phase” value (rats [1]; IP, all dose groups) is reported as “responded significantly lower than saline during the drug phase”. The “effect on d-amphetamine induced hyperactivity” value (rats [1]; IP, all doses) was “significantly reduced hyperlocomotion for all doses tested”, the “spontaneous locomotor activity, drug phase” value (rats [1]; oral 10, 20, 30 mg/kg) was “only the 10 and 30 mg/kg doses reduced spontaneous locomotor activity” and the “effect on d-amphetamine induced hyperlocomotion” value (rats [1]; oral 10-30 mg/kg, time points 140-180) was “reduced locomotor activity”. For the same molecule, the EC50 (NTR-1 [2]) was 3.92 ± 0.01 nM, the IC50 (NTR-1 [2]) was 11.2 ± 0.3 nM and the “affinity for the target receptor (NTR1)” value (NTR-1 [2]) was “nM affinity”. For the same molecule, the “binds less effectively than its parent” value (NTR-1 [2]) was 50 fold, the NTR-2 affinity (NTR-2 [3]) was “sub-micromolar” and the “Functional NTR-1 Agonist” value (NTR-1 [4]) was “Yes”. The “Functional NTR-2 Agonist” value (NTR-2 [5]) was “Yes”, the half-life [6] was over 167 h and the micronucleus study result (mouse bone marrow cells) was “inactive”. The “time by which plasma levels decreased below the LLOD” value ([7]; IV 1 mg/kg) was at most 45 min, the “clearance as % of rat hepatic blood flow” value ([7]; IV 5 mg/kg) was 74.02% and the “time measurable in whole blood” value ([7]; IV 5 mg/kg) was “up to 120 minutes”. The “time detectable in the blood and brain” value ([7]; IV 5 mg/kg and oral 50 mg/kg) was “up to 120 minutes”, the plasma levels ([7]; oral 30 mg/kg) was “below the LLOD at all times” and the “levels in whole blood” value ([7]; oral 50 mg/kg) was “below the LLOD at all times”. For the same molecule, the Vd ([7]; rat, in vivo, iv, 5 mg/kg) was 0.87 ± 0.27 L/kg, the clearance ([7]; rat, in vivo, iv, 5 mg/kg) was 40.8 mL/min/kg and the levels in brain ([8]; IV 1 mg/kg and PO 30 mg/kg) was “below the LLOD at all times”. For the same molecule, the levels in brain ([8]; IV 5 mg/kg) was “below the LLOD at all times”, the levels in brain ([8]; oral 50 mg/kg, 15 minutes post administration) was “detected in brains of 2 of 3 animals” and the “uptake in the stomach” value [9] was “Virtually no ABS201 is taken up in the stomach”. The “reversal of PPI deficit” value (Brattleboro rats) was “reverses PPI”, the “displacement of the receptors' endogenous substrate” value [10] was “No displacement” and the hERG study result [11] was “inactive”. The “binding to plasma proteins” value [12] was “little or no binding”, the “Toxicity, dose without toxicity” value (single acute dose I.P.) was “(>100 x ED50)” and the Toxicity (single acute dose at 100x ED50 I.P.) was “No”. For the same molecule, the “dose tolerance” value (rats [13]; 10x ED50 administered daily over 5 days) was “No”, the dose tolerance (rats [13]; I.P. 5 days at 5× the ED50, hypothermia and amphetamine-induced locomotion) was “not observed” and the antinociception (rats [13]; summary of behavioral effects) was “not antinociceptive”. For the same molecule, the MTD at 48 hr (in vivo; iv) was at least 100 mg/kg, the MTD at 48 hr (in vivo; po) was at least 500 mg/kg and the “lower limit for the MTD” value (rats [14]) was at least 100 times the ED50. For the same molecule, the catalepsy (rats [15]; IP 5 mg/kg, 5 mg/kg) was “does not induce catalepsy; also recorded: does not induce a cataleptic state” and the catalepsy (rats [15]; Table 11) was “No”.
